Assay results taken from patent publication US10532082B2, “SOCS1-derived peptide for use in chronic complications of diabetes” (Fundació Hospital Universitari Vall d'Hebron-Institut de …, priority 2014, dated 2020).
Where no end group is shown, it is not given here. [ ]: non-standard residue; d: D form. lysine‑palmitate = lysine-palmitate bound at the N-terminal end; pY = N[C@@H](Cc1ccc(OP(=O)(O)O)cc1)C(=O)O

System: diabetic mice (db/db)
Assay: Retinal IL-1β mRNA expression by RT-PCR
Type: in vivo
Conditions: eye drops 15 days, retina mRNA RT-PCR
Experimental: 8-week old diabetic mice (db/db) received the miS1 peptide in the form of eye drops (5 μL drops in each eye; 10 mg/mL; twice a day for 15 days; n=7 mice). Diabetic mice treated with the non-functional peptide Mut (n=7), treated with vehicle and non-diabetic mice (db/+) were used as controls. The eye drops were directly administered on the upper surface of the cornea of each eye using a micropipette. The weight and glycemia (colorimetric assay) were controlled throughout the study period. On day 15, the drop with the miS1 peptide or vehicle was administered about two hours before autopsy. The animals were euthanized by cervical dislocation and the enucleated eyes were immediately frozen and dorsoventral sections of […] were cut for analyzing retinal morphology and other immunohistochemical analyses.
The expression of IL-1β, TNF-α and IL-6 was evaluated. The total RNA was extracted with RNeasy Mini Kit with DNAse digestion (QIAGEN, distributed by IZASA, Barcelona, Spain) according to manufacturer's instructions. The RNA (1 μg) was used for reverse transcription with random hexanucleotide primers and Applied Biosystems reagents (Applied Biosystems, Madrid, Spain) in a reaction volume of 20 μl. […] The ΔΔCt method was used for obtaining the relative quantification (RQ).

miS1: SEQ ID NO 1 DTHFRTFRSHSDYRRI, kinase inhibitory region of murine SOCS1, bound to lysine-palmitate at the N-terminal end, tyrosine phosphorylated ({lysine‑palmitate}-DTHFRTFRSHSD[pY]RRI)
IL-1β increase induced by diabetes: prevented the increase
